From US9260435B2, “Substituted imidazopyrazines as Akt kinase inhibitors” (Bayer Intellectual Property GmbH, priority 2012, dated 2016) come the findings set out here.

As usually defined, the IC50 is the concentration that inhibits the measured activity by half. As usually defined, the inhibition is the percentage by which the read-out fell short of the control.

The target of assay [1] is His-tagged human recombinant kinase full-length Akt2 (Homo sapiens (Human), UniProt P31751). Nature of the assay: Akt2 kinase assay (TR-FRET). In kind it is biochemical. As to conditions: 10 μM ATP, read-out: Akt2, median IC50. The text has this:
Biological Assay 2.0: Akt2 Kinase Assay
Akt2 inhibitory activity of compounds of the present invention was quantified employing the Akt2 TR-FRET assay as described in the following paragraphs.
His-tagged human recombinant kinase full-length Akt2 expressed in insect cells and activated by PDK1 was purchased from Invitrogen (part number PV 3975). As substrate for the kinase reaction the biotinylated peptide biotin-Ahx-KKLNRTLSFAEPG (C-terminus in amide form) was used which can be purchased e.g. from the company Biosynthan GmbH (Berlin-Buch, Germany).
For the assay 50 nl of a 100 fold concentrated solution of the test compound in DMSO was pipetted into a black low volume 384 well microtiter plate (Greiner Bio-One, Frickenhausen, Germany), 2 μl of a solution of Akt2 in assay buffer [50 mM TRIS/HCl pH 7.5, 5 mM MgCl2, 1 mM dithiothreitol, 0.02% (v/v) Triton X-100 (Sigma)] were added and the mixture was incubated for 15 min at 22° C. to allow prebinding of the test compounds to the enzyme before the start of the kinase reaction. Then the kinase reaction was started by the addition of 3 μl of a solution of adenosine-tri-phosphate (ATP, 16.7 μM=>final conc. in the 5 μl assay volume is 10 μM) and substrate (1.67 μM=>final conc. in the 5 μl assay volume is 1 μM) in assay buffer and the resulting mixture was incubated for a reaction time of 60 min at 22° C. The concentration of Akt2 in the assay was adjusted depending of the activity of the enzyme lot and was chosen appropriate to have the assay in the linear range, typical enzyme concentrations were in the range of about 0.2 ng/μl (final conc. in the 5 μl assay volume).
The reaction was stopped by the addition of 5 μl of a solution of HTRF detection reagents (200 nM streptavidine-XL665 [Cisbio] and 1.5 nM anti-phosho-Serine antibody [Millipore, cat. #35-001] and 0.75 nM LANCE Eu-W 1024 labeled anti-mouse IgG antibody [Perkin Elmer]) in an aqueous EDTA-solution (100 mM EDTA, 0.1% (w/v) bovine serum albumin in 50 mM HEPES/NaOH pH 7.5).
The resulting mixture was incubated 1 h at 22° C. to allow the binding of the biotinylated phosphorylated peptide to the streptavidine-XL665 and the antibodies. Subsequently the amount of phosphorylated substrate was evaluated by measurement of the resonance energy transfer from the anti-mouse-IgG-Eu-Chelate to the streptavidine-XL665. Therefore, the fluorescence emissions at 620 nm and 665 nm after excitation at 350 nm was measured in a TR-FRET reader, e.g. a Rubystar (BMG Labtechnologies, Offenburg, Germany) or a Viewlux (Perkin-Elmer). The ratio of the emissions at 665 nm and at […] was taken as the measure for the amount of phosphorylated substrate. The data were normalised (enzyme reaction without inhibitor=0% inhibition, all other assay components but no enzyme=100% inhibition).
For orientation: TR-FRET usually uses a lanthanide donor and a delayed reading to cut background.

A further assay deals with phospho-AKT at S473. Nature of the assay: Cellular p-AKT1/2/3-S473 assay in KPL-4 cells. In kind it is cell-based. Conditions: Homo sapiens, KPL4; KPL-4 breast tumour cell line, 2 hours treatment; read-out: pAKT-S743 median IC50. The method, then: The phospho-substrates of PI3K-AKT-mTOR axis were used as the readouts to reflect pathway inhibition. Cells were seeded at 60-80% confluency per well in 96-well cell culture plates. After overnight incubation at 37° C. 5% CO2, cells were treated with compounds and vehicle at 37° C. for 2 hours. […] All measurements where at least done in duplicates and confirmed by independent repetition. Alternatively pAKT-S473 was measured using the “Akt Duplex” of the MULTI-SPOT® Assay System (Fa. Meso Scale Discovery, Cat# N41100B-1) following manufacturers instructions. Each assay used 20 μg of protein extract and measured total AKT and p-AKT content simultaneously in one well. All measurements where at least done in duplicates and confirmed by independent repetition. Values for P-AKT are expressed as percentage of P-AKT level compared to total-AKT content of the extracts.

Assay [2] has as its system KPL-4 breast cancer cell line. As to the kind of experiment: Tumor cell proliferation assay (CellTiter-Glo, 72 h), KPL-4. Conditions: Homo sapiens, KPL4, 72 h drug exposure; for inhibition at 1.67 µM: read-out: KPL-4 median inhibition at 1.67 μM (%). In kind it is cell-based. The method, then:
Biological Assay 4.0: Tumor Cell Proliferation Assays
Compounds were tested in a cell-based assay that measures the capacity of the compounds to inhibit tumour cell proliferation following a 72 h drug exposure. Cell viability is determined using CellTiter-Glow® (CTG, Promega, cat# G7571/2/3). The CellTiter-Glo® Luminescent Cell Viability Assay is a homogeneous method to determine the number of viable cells in culture. Detection is based on using the luciferase reaction to measure the amount of ATP from viable cells. The amount of ATP in cells correlates with cell viability. Within minutes after a loss of membrane integrity, cells lose the ability to synthesize ATP, and endogenous ATPases destroy any remaining ATP; thus the levels of ATP fall precipitously.
Cells were plated at 3000-5000 cells/well (depending on the cell lines) in 90 μL growth medium on MTPs (Corning; #3603, black plate, clear flat bottom). For each cell line assayed, cells were plated onto a separate plate for determination of […] at t=0 hour and t=72 hour time points. Following overnight incubation at 37° C., chemiluminescence values for the t=0 samples were determined after adding 10 μl medium and 100 μl CTG solution according to manufacture protocol. Plates for the t=72 hour time points were treated with compounds diluted into growth medium at ten times final concentration added in 10 μL to the cell culture plate. Cells were then incubated for 72 hours at 37° C. Chemiluminescence values for the t=72 hour samples were determined. […] Experiments were controlled using a reference compound as standard.
Preferred compounds of the present invention show in this assay an inhibition of cell growth of cell lines such as the KPL-4 breast cancer cell line and the MCF-7 breast tumour cell line ([…], hormone dependent) with a median IC50 of <10 μM, more preferably, median IC50≦1 μM.
On the technique in general: Cellular ATP, detected with luciferase, serves as a proxy for viable cell number.

Chain of His-tagged human recombinant kinase full-length Akt2 (P31751 whole entry): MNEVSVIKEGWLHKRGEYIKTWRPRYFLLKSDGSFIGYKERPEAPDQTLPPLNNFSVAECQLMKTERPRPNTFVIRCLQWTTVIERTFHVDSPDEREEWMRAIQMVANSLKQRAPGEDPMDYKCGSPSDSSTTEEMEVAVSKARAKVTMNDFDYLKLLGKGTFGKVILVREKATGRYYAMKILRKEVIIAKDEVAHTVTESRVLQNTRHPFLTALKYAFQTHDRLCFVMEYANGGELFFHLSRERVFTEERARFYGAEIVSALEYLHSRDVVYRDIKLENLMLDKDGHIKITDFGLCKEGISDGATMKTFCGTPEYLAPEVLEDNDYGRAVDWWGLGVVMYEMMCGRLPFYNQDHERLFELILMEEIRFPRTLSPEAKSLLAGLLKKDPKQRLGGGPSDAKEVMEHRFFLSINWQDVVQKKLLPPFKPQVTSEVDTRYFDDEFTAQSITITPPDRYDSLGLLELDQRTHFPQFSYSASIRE

In the case of `NC(=O)c1cn2c(-c3ccccc3)c(-c3ccc(C4(N)CCC4)cc3)nc2cn1` [Example 6, 2-[4-(1-Aminocyclobutyl)phenyl]-3-phenylimidazo[1,2-a]pyrazine-6-carboxamide], the results for the IC50 (in assay [1]; in the assay with phospho-AKT at S473; in assay [2]) were 0.097 µM, 0.02 µM and 0.29 µM, respectively. The inhibition at 1.67 µM in assay [2] was found to be 79.5%.
In the same order, the values of `COc1nc(Br)cn2c(-c3ccccc3)c(-c3ccc(C4(N)CCC4)cc3)nc12` [Example 3, 1-[4-(6-Bromo-8-methoxy-3-phenylimidazo[1,2-a]pyrazin-2-yl)phenyl]cyclobutanamine] are 0.033 µM, 0.19 µM, 1.7 µM and 57%.
In the same order, the values of `COC(=O)c1cn2c(-c3ccccc3)c(-c3ccc(C4(N)CCC4)cc3)nc2c(OC)n1` [Example 7, Methyl 2-[4-(1-aminocyclobutyl)phenyl]-8-methoxy-3-phenylimidazo[1,2-a]pyrazine-6-carboxylate] are 0.086 µM, 0.044 µM, 5.5 µM and 22%.
The matching figures for `COc1nc(C(N)=O)cn2c(-c3ccccc3)c(-c3ccc(C4(N)CCC4)cc3)nc12` [Example 8, 2-[4-(1-Aminocyclobutyl)phenyl]-8-methoxy-3-phenylimidazo[1,2-a]pyrazine-6-carboxamide]: 0.014 µM, 0.0075 µM, 0.15 µM and 83.6%.
For `CCc1cn2c(-c3ccccc3)c(-c3ccc(C4(N)CCC4)cc3)nc2c(OC)n1` [Example 4, 1-[4-(6-Ethyl-8-methoxy-3-phenylimidazo[1,2-a]pyrazin-2-yl)phenyl]cyclobutanamine], the half-maximal inhibitory concentration (IC50) is 0.034 µM in assay [1], 0.085 µM in the assay with phospho-AKT at S473 and 1.2 µM in assay [2]. Moreover, in assay [2], the inhibition at 1.67 µM came out at 64.4%.
The matching figures for `Cc1cn2c(-c3ccccc3)c(-c3ccc(C4(N)CCC4)cc3)nc2c(C)n1` [Example 2, 1-[4-(6,8-Dimethyl-3-phenylimidazo[1,2-a]pyrazin-2-yl)phenyl]-cyclobutanamine]: 0.22 µM, 0.027 µM, 0.71 µM and 68%.
